In US20230192785A1, “JNK3 INHIBITORY PEPTIDES” (UNIVERSITA' DEGLI STUDI DI MILANO, priority 2020, published 2023):
Ends that are not written are not given here.

Legend:
mouse cortical neurons = test: MTT toxicity assay on cortical neurons under control conditions; type: cell-based; conditions: 24 hours, 3 doses tested, FIG. 4A
Method: FIG. 4: A) Toxicity at the indicated concentrations of SIMBA2 was evaluated by MTT assay and it is expressed in % survival. Data are expressed as mean ± SEM of 3 independent experiments (n = 6). ANOVA one-way, Dunnett post hoc test. B) Western blot of cortical neurons under control conditions and relative quantification showing that SIMBA2 (0.25-0.5 µM) prevents the phosphorylation of APP at the T668 position in a dose-dependent manner. Data are expressed as mean ± SEM of 3 independent experiments (n = 6). ANOVA one-way, Dunnett’s post-hoc test, ** p <0.01. C) Western blot and related quantification showing that SIMBA2 (0.25-0.5 µM) reduces P-c-Jun phosphorylation in neurons. Data are expressed as mean ± SEM of 3 independent experiments (n = 6). […]
FIG. 10: A) Toxicity at the indicated concentrations of SIMBA2, evaluated by MTT assay and expressed as fold of change with respect to tcontrol. Data are expressed as mean ± SEM of 3 independent experiments (n = 6). […] B) Western blot of cortical neurons under control conditions in the absence (Ctr) or in the presence of SIMBA2 1 µM (1) and relative quantification showing that SIMBA2 (1 µM) at 24 h prevents the phosphorylation of P-c-Jun and reduces the phosphorylation of the APP at position T668 and C) the activity is maintained at 3 days and D) at 6 days after treatment. Data are expressed as mean ± SEM of 2 independent experiments (n = 5). […]

[1] = Toxicity after single injection: body weight and side effects in mice; type: in vivo, mouse
Method: FIG. 9: A) Measurement of body weight in mice before treatment. Data are expressed as mean body weight (g) ± SEM. B) Weight gain or loss was analyzed as the difference between the weight at the end and before the treatment. Data are expressed as mean ± SEM.
Therefore, SIMBA2 at the highest dose was able to prevent synaptopathy in vivo.
The toxicity of SIMBA2 after a single injection was evaluated. As an index of the general health of the animals, the change in the body weight of the mice was evaluated. […] 1 month after the I.P. injection, the body weight was measured again.

JNK3 = JNK3 (Homo sapiens, UniProt P53779); test: Alpha Screen Kinase Assay, cell-free JNK3 activity; type: biochemical; conditions: cell-free AlphaScreen, FIG. 3B
Method: FIG. 3: A) Cell-free assay of JNK1 activity in the presence of peptides according to the invention.
To evaluate the specificity of the four peptides described above for JNK3, the Alpha Screen Kinase Assay was performed, following the experimental method described for the cell-free assays. Briefly, this AlphaScreen assay is used to measure the ability of the JNK kinase to phosphorylate its targets. The kinase reaction was performed under the following buffer conditions of the assay: 20 mM Tris / HCl (pH 7.4), 10 mM MgCl2, 1 mM DTT, 100 µM Na3VO4 and 0.01% Tween-20. Compounds (final concentration 5 µg / mL, 1% DMSO) or the control vehicle (final concentration 1% DMSO) were diluted in the assay buffer and mixed with JNK kinase (final concentration 5 nM). After an incubation time of 15 minutes at room temperature, biotinylated substrate, 6 nM final and ATP, 1 µM final diluted in assay buffer were added, followed by incubation of the dishes for 2 hours at room temperature. After this incubation period, the streptavidin donor and acceptor beads coated with anti-phosphosubstrate protein A antibody were added, with a final concentration of each component of 20 µg / mL, diluted in the following buffer: 20 mM Tris / HCl (pH 7.4), 200 mM NaCl, 80 mM ethylenediamine tetraacetic acid (EDTA) and 0.3% bovine serum albumin (BSA). After an overnight incubation, the dosage was measured using the AlphaQuest reader.
The ATP-competitive and non-selective inhibitor SP600125 was used as a positive control for the different isoforms of JNK.

Chain of JNK3 (P53779 whole entry, species assumed): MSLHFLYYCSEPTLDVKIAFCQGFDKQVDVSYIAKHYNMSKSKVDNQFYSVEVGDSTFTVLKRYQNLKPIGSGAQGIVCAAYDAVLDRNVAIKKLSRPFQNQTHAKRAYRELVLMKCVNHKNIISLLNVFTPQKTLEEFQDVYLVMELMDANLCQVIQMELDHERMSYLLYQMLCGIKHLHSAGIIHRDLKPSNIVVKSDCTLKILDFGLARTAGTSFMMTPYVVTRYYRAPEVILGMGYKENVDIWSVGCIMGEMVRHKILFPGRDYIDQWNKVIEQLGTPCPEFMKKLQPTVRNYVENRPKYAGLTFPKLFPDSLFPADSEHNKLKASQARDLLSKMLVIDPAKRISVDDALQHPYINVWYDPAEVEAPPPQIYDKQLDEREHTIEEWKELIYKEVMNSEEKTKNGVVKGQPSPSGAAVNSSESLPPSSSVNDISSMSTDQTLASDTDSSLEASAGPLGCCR

Substance	toxicity (MTT, % survival) (mouse cortical neurons)	change in body weight ([1]; 1 month after single I.P. injection, FIG. 9B)	side effects in vivo ([1]; TgCRND8 mice, 22 mg/kg)	inhibition of JNK3 activity on p-c-Jun (JNK3)
SDRSLHLEANEKGENVNVHVTKTRADKSKIKVSVRQYADINEKGEAQYKCPVAQLE [SIMBA2]	no toxicity	did not show changes in body weight	did not lead to the onset of any noticeable side effects	–
SIMBA2 long A: peptide SDRSLHLEANEKGENVNVHVTKTNEKGEKIKVSVRQYADINEKGEAQYKCPVAQLE (Designed peptide based on size and structure to act in the interaction among beta-arrestin-2 and JNK3)	–	–	–	inhibit the activity of JNK3 on p-c-Jun in a concentration-dependent manner
SIMBA2 short A: peptide SDRSLHLEAEKGNVNVHVTKTEKGKIKVSVRQYADIEKGAQYKCPVAQLE (Designed peptide based on size and structure to act in the interaction among beta-arrestin-2 and JNK3)	–	–	–	inhibit the activity of JNK3 on p-c-Jun in a concentration-dependent manner
SIMBA2 short B: peptide SDRSLHLEAEKGNVNVHVTKTADKKIKVSVRQYADIEKGAQYKCPVAQLE (Designed peptide based on size and structure to act in the interaction among beta-arrestin-2 and JNK3)	–	–	–	inhibit the activity of JNK3 on p-c-Jun in a concentration-dependent manner
